Data from paper PMC6300358, “Preacinetobactin not acinetobactin is essential for iron uptake by the BauA transporter of the pathogen Acinetobacter baumannii” (eLife, 2018).

Target: T1, BauA (Acinetobacter baumannii, UniProt Q76HJ9)
T1 construct: mature protein (signal peptide removed); residues 33 to 703 well defined in the apo structure
Test: ITC (Kd […] at Fe3+:siderophore […]; […] at […]) and […] Å crystal structure
Type: binding

T1 sequence (Q76HJ9 entry or part of it): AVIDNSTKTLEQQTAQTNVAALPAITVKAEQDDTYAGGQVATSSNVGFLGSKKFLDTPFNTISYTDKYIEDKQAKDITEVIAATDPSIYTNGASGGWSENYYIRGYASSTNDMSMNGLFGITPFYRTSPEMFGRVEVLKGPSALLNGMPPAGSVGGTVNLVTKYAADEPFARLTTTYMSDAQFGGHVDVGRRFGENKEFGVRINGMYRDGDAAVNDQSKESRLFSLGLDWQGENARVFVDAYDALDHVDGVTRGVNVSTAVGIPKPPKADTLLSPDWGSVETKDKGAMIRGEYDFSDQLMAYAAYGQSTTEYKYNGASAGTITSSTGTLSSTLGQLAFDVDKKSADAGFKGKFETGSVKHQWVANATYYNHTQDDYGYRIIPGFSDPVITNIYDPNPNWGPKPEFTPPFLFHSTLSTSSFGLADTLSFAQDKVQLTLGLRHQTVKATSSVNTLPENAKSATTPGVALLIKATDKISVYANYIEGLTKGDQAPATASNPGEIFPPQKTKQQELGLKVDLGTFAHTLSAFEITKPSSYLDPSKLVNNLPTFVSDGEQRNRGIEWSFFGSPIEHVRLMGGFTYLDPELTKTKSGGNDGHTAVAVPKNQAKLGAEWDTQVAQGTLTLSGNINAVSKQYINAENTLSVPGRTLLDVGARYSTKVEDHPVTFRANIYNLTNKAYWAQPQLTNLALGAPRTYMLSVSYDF

## C[C@H]1OC(c2cccc(O)c2O)=N[C@@H]1C(=O)N(O)CCc1cnc[nH]1 [preacinetobactin]
  Kd: 83 nM
